Source: patent US9388208B2, “Pyrrolo[1,2-f][1,2,4]triazines useful for treating respiratory syncitial virus infections” (Gilead Sciences, Inc., priority 2013, dated 2016)
Where two headings read alike, the source gives them in different places. Blank lines part the entries; values can stand above or below the compound they belong to.

Legend:
[1] = test system: MT-4 cells; experiment: Cytotoxicity assay in MT-4 cells; type: cell-based; conditions: 5 days, Cell-Titer Glo
Experimental: (§1) The MT-4 cell line was obtained from the NIH AIDS Research and Reference Reagent Program (Germantown, Md.) and cultured in RPMI-1640 medium (Irvine Scientific, Santa Ana, Calif., Cat #9160) supplemented with 10% FBS, 100 units/mL penicillin, 100 units/mL streptomycin, and 2 mM L-Glutamine. The MT-4 cells were passaged twice per week to maintain cell densities below 0.6×10^6 cells/mL. Complete RPMI-1640 media containing 100× concentrations of 3-fold serially diluted compound, ranging from 26 nM to 530 μM, were stamped in quadruplicate into black 384-well plates. After compound addition, 2×10^3 MT-4 cells were added to each well using a MicroFlo liquid dispenser (BioTek, Winooski, Vt.) and the cells were cultured for 5 days at 37° C. in a 5% CO2 incubator. Following the incubation the cells were allowed to equilibrate to 25° C. and cell viability was determined by adding 25 μL of Cell-Titer Glo viability reagent. The mixture was incubated for 10 minutes at 25° C., and the luminescence signal was quantified on a Victor Luminescence plate reader. The CC50 value is defined as the concentration of compound that reduces cell viability by 50% as determined by the Cell-Titer Glo signal. The data were analyzed using Pipeline Pilot Plate Data Analytics Collection software (Version 7.0, Accelrys, San Diego, Calif.). CC50 values were calculated from a non-linear regression analysis using a 4-parameter sigmoidal dose-response equation: Y=Bottom+(Top−Bottom)/(1+10^[(Log CC50−X)*HillSlope]) where the Top and Bottom were fixed at 100% and 0% cell viability, respectively. CC50 values were calculated as the average±standard deviation of 3 independent experiments.

[2] = test system: RSV strain A2; experiment: Anti-RSV activity, infectious cytopathic cell protection assay in HEp-2 cells; type: cell-based, Respiratory Syncytial Virus (RSV)
Experimental: Antiviral activity against RSV is determined using an infectious cytopathic cell protection assay in HEp-2 cells. In this assay, compounds inhibiting viral infection and/or replication produce a cytoprotective effect against the virus-induced cell killing that can be quantified using a cell viability reagent. The techniques used here are novel adaptations of methods described in published literature (Chapman et al., Antimicrob Agents Chemother. 2007, 51(9):3346-53.)
HEp-2 cells are obtained from ATCC (Manassas, VI) and maintained in MEM media supplemented with 10% fetal bovine serum and penicillin/streptomycin. Cells are passaged twice a week and kept at subconfluent stage. Commercial stock of RSV strain A2 (Advanced Biotechnologies, Columbia, Md.) is titered before compound testing to determine the appropriate dilution of the virus stock that generates desirable cytopathic effect in HEp-2 cells.
For antiviral tests, HEp-2 cells are grown in large cell culture flasks to near confluency but not fully so. The compounds to be tested are prediluted in DMSO in 384-well compound dilution plates, either in an 8 or 40 sample per plate standardized dose response format. 3-fold serial dilution increments of each test compound are prepared in the plates and test samples are transferred via acoustic transfer apparatus (Echo, Labcyte) at 100 nl per well into cell culture assay 384-well plates. Each compound dilution is transferred in single or quadruplicate samples into dry assay plates, which are stored until assay is ready to go. The positive and negative controls are laid out in opposite on ends of the plate in vertical blocks (1 column).
Subsequently, an infectious mixture is prepared using an appropriate dilution of virus stock previously determined by titration with cells at a density of 50,000/ml and 20 uL/well is added to test plates w/compounds via automation (uFlow, Biotek). Each plate includes negative and positive controls (16 replicates each) to create 0% and 100% virus inhibition standards, respectively. Following the infection with RSV, testing plates are incubated for 4 days in a 37° C. cell culture incubator. After the incubation, a cell viability reagent, Cell TiterGlo (Promega, Madison, Wis.) is added to the assay plates, which are incubated briefly, and a luminescent readout is measured (Envision, Perkin Elmer) in all the assay plates. The RSV-induced cytopathic effect, percentage inhibition, is determined from the levels of remaining cell viability. These numbers are calculated for each tested concentration relative to the 0% and 100% inhibition controls, and the EC50 value for each compound is determined by non-linear regression as a concentration inhibiting the RSV-induced cytopathic effect by 50%. Various potent anti-RSV tool compounds are used as positive controls for antiviral activity.

[3] = test system: HEp-2 cells; experiment: Cytotoxicity assay in HEp-2 cells; type: cell-based; conditions: uninfected HEp-2 cells, 4 days, CellTiter Glo
Experimental: (§2) Cytotoxicity of tested compounds is determined in uninfected HEp-2 cells in parallel with the antiviral activity using the cell viability reagent in a similar fashion as described before for other cell types (Cihlar et al., Antimicrob Agents Chemother. 2008, 52(2):655-65.). The same protocol as for the determination of antiviral activity is used for the measurement of compound cytotoxicity except that the cells are not infected with RSV. Instead, an uninfected cell mixture at the same density is added at 20 ul/well to plates containing prediluted compounds, also at 100 nl/sample. Assay plates are then incubated for 4 days followed by a cell viability test using the same CellTiter Glo reagent addition and measurement of luminescent readouts. Untreated cell and cells treated at 2 uM puromycin (Sigma, St. Louis, Mo.) serve as 100% and 0% cell viability control, respectively. The percent of cell viability is calculated for each tested compound concentration relative to the 0% and 100% controls and the CC50 value is determined by non-linear regression as a compound concentration reducing the cell viability by 50%.

[4] = target: T1, RSV ribonucleoprotein (RNP) complexes (Human respiratory syncytial virus A, UniProt P28887); experiment: RSV RNP assay (inhibition of RSV RNP transcription); type: biochemical, RSV A2; conditions: 90 minute incubation at 30° C., total radiolabeled transcripts
T1 construct: The supernatant (S3) fraction, containing the enriched RSV RNP complexes, was collected; endogenous in cells; host or cells: HEp-2 cells infected with RSV A2; detergent-extracted crude S3 fraction
Experimental: RSV ribonucleoprotein (RNP) complexes were prepared from a method modified from Mason at al (1). HEp-2 cells were plated at a density of 7.1×10^4 cells/cm^2 in MEM+10% fetal bovine serum (FBS) and allowed to attach overnight at 37° C. (5% CO2). Following attachment, the cells were infected with RSV A2 (M01=5) in 35 mL MEM+2% FBS. At 20 hours post-infection, the media was replaced with MEM+2% FBS supplemented with 2 μg/mL actinomycin D and returned to 37° C. for one hour. The cells were then washed once with PBS and treated with 35 mL of PBS+250 μg/mL lyso-lecithin for one minute, after which all liquid was aspirated. The cells were harvested by scrapping them into 1.2 mL of buffer A [50 mM TRIS acetate (pH 8.0), 100 mM potassium acetate, 1 mM DTT and 2 μg/mL actinomycin D] and lysed by repeated passage through an 18 gauge needle (10 times). The cell lysate was placed in ice for 10 minutes and then centrifuged at 2400g for 10 minutes at 4° C. The supernatant (S1) was removed and the pellet (P1) was disrupted in 600 uL of Buffer B [10 mM TRIS acetate (pH 8.0), 10 mM potassium acetate and 1.5 mM MgCl2] supplemented with 1% Triton X-100 by repeated passage through an 18 gauge needle (10 times). The resuspended pellet was placed in ice for 10 minutes and then centrifuged at 2400g for 10 minutes at 4° C. The supernatant (S2) was removed and the pellet (P2) was disrupted in 600 uL of Buffer B supplemented with 0.5% deoxycholate and 0.1% Tween 40. The resuspended pellet was placed in ice for 10 minutes and then centrifuged at 2400g for 10 minutes at 4° C. The supernatant (S3) fraction, containing the enriched RSV RNP complexes, was collected and the protein concentration determined by UV absorbance at 280 nm. Aliquoted RSV RNP S3 fractions were stored at −80° C.
Transcription reactions contained 25 μg of crude RSV RNP complexes in 30 μL of reaction buffer [50 mM TRIS-acetate (pH 8.0), 120 mM potassium acetate, 5% glycerol, 4.5 mM MgCl2, 3 mM DTT, 2 mM ethyleneglycol-bis(2-aminoethylether)-tetraacetic acid (EGTA), 50 μg/mL BSA, 2.5 U RNasin (Promega), ATP, GTP, UTP, CTP and 1.5 uCi [α-^32P] NTP (3000 Ci/mmol)]. The radiolabeled nucleotide used in the transcription assay was selected to match the nucleotide analog being evaluated for inhibition of RSV RNP transcription. Cold, competitive NTP was added at a final concentration of one-half its Km (ATP=20 μM, GTP=12.5 μM, UTP=6 μM and CTP=2 μM). The three remaining nucleotides were added at a final concentration of 100 μM.
To determine whether nucleotide analogs inhibited RSV RNP transcription, compounds were added using a 6 step serial dilution in 5-fold increments. Following a 90 minute incubation at 30° C., the RNP reactions were stopped with 350 μL of Qiagen RLT lysis buffer and the RNA was purified using a Qiagen RNeasy 96 kit. Purified RNA was denatured in RNA sample loading buffer (Sigma) at 65° C. for 10 minutes and run on a 1.2% agarose/MOPS gel containing 2M formaldehyde. The agarose gel was dried and exposed to a Storm phosphorimager screen and developed using a Storm phosphorimager (GE Healthcare). The concentration of compound that reduced total radiolabeled transcripts by 50% (IC50) was calculated by non-linear regression analysis of two replicates.

[5] = Cytotoxicity assay in HEp-2 cells; type: cell-based; conditions: human, uninfected HEp-2 cells, CellTiter Glo
Experimental: as §2

[6] = Cytotoxicity assay in MT-4 cells; type: cell-based; conditions: human, Cell-Titer Glo
Experimental: as §1

[7] = human respiratory syncytial virus, 96 h, HEp-2 cells infected with RSV A2, 4 days, Cell TiterGlo, read-out: EC50

T1 sequence (P28887 whole entry): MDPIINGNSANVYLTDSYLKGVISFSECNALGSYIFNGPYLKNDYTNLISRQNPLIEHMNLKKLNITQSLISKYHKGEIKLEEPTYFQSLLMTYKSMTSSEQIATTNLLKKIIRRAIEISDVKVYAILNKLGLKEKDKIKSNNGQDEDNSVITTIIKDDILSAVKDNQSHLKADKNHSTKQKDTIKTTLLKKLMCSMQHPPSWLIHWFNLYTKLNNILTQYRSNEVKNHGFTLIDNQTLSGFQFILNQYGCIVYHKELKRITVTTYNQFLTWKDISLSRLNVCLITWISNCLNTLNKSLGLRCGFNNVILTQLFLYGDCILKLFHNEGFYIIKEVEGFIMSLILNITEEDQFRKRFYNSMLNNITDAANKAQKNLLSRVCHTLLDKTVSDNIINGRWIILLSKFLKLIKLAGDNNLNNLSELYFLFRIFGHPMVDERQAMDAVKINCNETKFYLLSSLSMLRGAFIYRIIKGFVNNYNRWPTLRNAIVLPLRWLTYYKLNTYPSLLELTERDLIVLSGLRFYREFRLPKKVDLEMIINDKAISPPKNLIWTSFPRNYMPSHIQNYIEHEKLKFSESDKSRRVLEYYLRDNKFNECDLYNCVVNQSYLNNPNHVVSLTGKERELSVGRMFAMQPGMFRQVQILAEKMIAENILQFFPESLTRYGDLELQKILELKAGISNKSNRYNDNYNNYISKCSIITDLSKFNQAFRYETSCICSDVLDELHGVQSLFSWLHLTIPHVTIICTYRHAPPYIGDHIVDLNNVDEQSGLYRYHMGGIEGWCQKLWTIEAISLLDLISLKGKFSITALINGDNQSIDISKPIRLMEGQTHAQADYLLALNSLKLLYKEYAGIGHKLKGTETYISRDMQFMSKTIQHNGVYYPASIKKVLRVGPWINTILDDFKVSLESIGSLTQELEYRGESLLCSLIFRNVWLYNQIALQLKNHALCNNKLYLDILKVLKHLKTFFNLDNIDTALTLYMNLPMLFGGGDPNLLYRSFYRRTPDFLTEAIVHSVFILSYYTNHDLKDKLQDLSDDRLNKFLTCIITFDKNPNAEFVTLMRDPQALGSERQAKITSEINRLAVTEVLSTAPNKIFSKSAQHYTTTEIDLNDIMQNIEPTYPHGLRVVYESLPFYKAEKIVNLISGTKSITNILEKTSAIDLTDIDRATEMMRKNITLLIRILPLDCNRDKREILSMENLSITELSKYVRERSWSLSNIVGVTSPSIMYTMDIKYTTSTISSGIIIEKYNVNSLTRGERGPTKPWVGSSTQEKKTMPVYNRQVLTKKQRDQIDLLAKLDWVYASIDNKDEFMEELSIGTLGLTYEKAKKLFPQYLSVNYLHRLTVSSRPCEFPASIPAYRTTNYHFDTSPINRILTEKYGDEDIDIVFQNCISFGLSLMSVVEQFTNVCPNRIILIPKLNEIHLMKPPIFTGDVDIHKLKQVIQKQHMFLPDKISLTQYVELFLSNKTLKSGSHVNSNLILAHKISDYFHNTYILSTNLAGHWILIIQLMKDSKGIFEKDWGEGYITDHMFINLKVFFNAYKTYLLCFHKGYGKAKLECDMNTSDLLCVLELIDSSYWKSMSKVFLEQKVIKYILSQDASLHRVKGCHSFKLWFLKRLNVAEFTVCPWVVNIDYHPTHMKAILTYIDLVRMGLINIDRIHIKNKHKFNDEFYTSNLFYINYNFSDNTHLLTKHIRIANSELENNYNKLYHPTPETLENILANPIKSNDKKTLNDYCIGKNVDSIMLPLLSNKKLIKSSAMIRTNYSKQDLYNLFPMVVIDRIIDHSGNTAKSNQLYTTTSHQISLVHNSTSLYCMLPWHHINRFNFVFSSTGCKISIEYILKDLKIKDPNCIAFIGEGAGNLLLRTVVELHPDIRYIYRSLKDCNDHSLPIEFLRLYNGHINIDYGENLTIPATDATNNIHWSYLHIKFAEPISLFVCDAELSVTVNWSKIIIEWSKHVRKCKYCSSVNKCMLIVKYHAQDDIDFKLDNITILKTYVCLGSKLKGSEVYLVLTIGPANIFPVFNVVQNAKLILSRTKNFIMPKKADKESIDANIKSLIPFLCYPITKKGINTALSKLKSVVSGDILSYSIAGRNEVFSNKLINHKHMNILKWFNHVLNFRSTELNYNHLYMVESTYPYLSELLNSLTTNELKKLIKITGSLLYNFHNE
T1 sequence (P03421 whole entry, further chain): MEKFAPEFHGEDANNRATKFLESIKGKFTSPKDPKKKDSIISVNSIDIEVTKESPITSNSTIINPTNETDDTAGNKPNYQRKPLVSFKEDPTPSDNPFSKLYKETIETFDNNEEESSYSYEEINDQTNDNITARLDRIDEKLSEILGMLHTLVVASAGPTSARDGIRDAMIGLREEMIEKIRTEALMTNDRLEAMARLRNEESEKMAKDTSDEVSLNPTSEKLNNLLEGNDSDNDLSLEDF

SMILES: N#C[C@]1(CO)O[C@@H](c2ccc3c(N)ncnn23)[C@H](O)[C@@H]1O [Example 1, (2R,3S,4R,5S)-5-(4-aminopyrrolo[1,2-f][1,2,4]triazin-7-yl)-3,4-dihydroxy-2-(hydroxymethyl)tetrahydrofuran-2-carbonitrile]
- CC50 [1]: > 53 µM
- EC50 ([2]; HEp-2 cells infected with RSV A2, 4 days, Cell TiterGlo, read-out: EC50): 7.3 µM
- CC50 [3]: > 50 µM

SMILES: C=C[C@]1(COP(=O)(O)OP(=O)(O)OP(=O)(O)O)O[C@@H](c2ccc3c(N)ncnn23)[C@H](F)[C@@H]1O [Example 17, ((2R,3R,4R,5S)-5-(4-aminopyrrolo[2,1-f][1,2,4]triazin-7-yl)-4-fluoro-3-hydroxy-2-vinyltetrahydrofuran-2-yl)methyl tetrahydrogen triphosphate]
- IC50 [4]: 560 nM

SMILES: CC[C@]1(COP(=O)(O)OP(=O)(O)OP(=O)(O)O)O[C@@H](c2ccc3c(N)ncnn23)[C@H](F)[C@@H]1O [Example 18, ((2R,3R,4R,5S)-5-(4-aminopyrrolo[2,1-f][1,2,4]triazin-7-yl)-2-ethyl-4-fluoro-3-hydroxytetrahydrofuran-2-yl)methyl tetrahydrogen triphosphate]
- IC50 [4]: 420 nM

- EC50 [2, 7]: 0.57 µM
- EC50 ([2]; human respiratory syncytial virus, HEp-2 anti-RSV activity, read-out: EC50 (HEp-2 anti-RSV activity)): < 100 µM
SMILES: [N-]=[N+]=N[C@]1(CO)O[C@@H](c2ccc3c(N)nc(F)nn23)[C@H](F)[C@@H]1O [Example 22, (2R,3R,4R,5S)-5-(4-amino-2-fluoropyrrolo[2,1-f][1,2,4]triazin-7-yl)-2-azido-4-fluoro-2-(hydroxymethyl)tetrahydrofuran-3-ol]
- CC50 [1]: 32 µM
- CC50 at 4 days [5]: > 100 µM

- EC50 [2, 7]: > 50 µM
SMILES: Nc1ncnn2c([C@@H]3O[C@@](CO)(CCl)[C@@H](O)[C@H]3O)ccc12 [Example 26, (2R,3S,4R,5S)-5-(4-aminopyrrolo[2,1-f][1,2,4]triazin-7-yl)-2-(chloromethyl)-2-(hydroxymethyl)tetrahydrofuran-3,4-diol]
- CC50 at 5 days [6]: > 53 µM
- CC50 [1]: > 57 µM
- CC50 at 4 days [5]: 42 µM

SMILES: [N-]=[N+]=N[C@]1(COP(=O)(O)OP(=O)(O)OP(=O)(O)O)O[C@@H](c2ccc3c(N)ncnn23)[C@H](F)[C@@H]1O [Example 27, ((2R,3R,4R,5S)-5-(4-aminopyrrolo[2,1-f][1,2,4]triazin-7-yl)-2-azido-4-fluoro-3-hydroxytetrahydrofuran-2-yl)methyl tetrahydrogen triphosphate]
- IC50 [4]: 97 nM

SMILES: [N-]=[N+]=N[C@]1(COP(=O)(O)OP(=O)(O)OP(=O)(O)O)O[C@@H](c2cc(F)c3c(N)ncnn23)[C@H](F)[C@@H]1O [Example 28, ((2R,3R,4R,5S)-5-(4-amino-5-fluoropyrrolo[2,1f-][1,2,4]triazin-7-yl)-2-azido-4-fluoro-3-hydroxytetrahydrofuran-2-yl)methyl tetrahydrogen triphosphate]
- IC50 [4]: 86 nM

SMILES: [N-]=[N+]=N[C@]1(COP(=O)(O)OP(=O)(O)OP(=O)(O)O)O[C@@H](c2ccc3c(N)nc(F)nn23)[C@H](F)[C@@H]1O [Example 29, ((2R,3R,4R,5S)-5-(4-amino-2-fluoropyrrolo[2,1-f][1,2,4]triazin-7-yl)-2-azido-4-fluoro-3-hydroxytetrahydrofuran-2-yl)methyl tetrahydrogen triphosphate]
- IC50 [4]: 80 nM

SMILES: N#C[C@]1(COP(=O)(O)OP(=O)(O)OP(=O)(O)O)O[C@@H](c2cc(F)c3c(N)ncnn23)[C@H](O)[C@@H]1O [Example 32, ((2R,3S,4R,5S)-5-(4-amino-5-fluoropyrrolo[2,1f-][1,2,4]triazin-7-yl)-2-cyano-3,4-dihydroxytetrahydrofuran-2-yl)methyl tetrahydrogen triphosphate]
- IC50 [4]: 22 nM
